The subject of experiment [1] is Erysiphe graminis tritici. In words: Powdery mildew in wheat, additional examples (Table 6). It counts as in vivo. Particulars: 500 ppm, 7 days after inoculation. The protocol:
Wheat plants (cv.Shafir) were raised from seed in the greenhouse, 30 plants per 0.2 liter pot. When the first leaf was fully developed plants were sprayed with the test solutions and placed in a 20° C. growth cabinet. Two days after spraying plants were dusted with conidia of E. graminis tritict so that about 100 spores were settled on 1 cm^2 of leaf area (both surfaces). […] Control efficacy was calculated relative to number of colonies developed on the control-inoculated untreated plants.

Experiment [2] relates to Plasmopara viticola. Kind of experiment: Downy mildew in grapes (Table 9). Particulars: 500 ppm, 10 days after inoculation. It counts as in vivo. Here is the method:
Two days after spraying plants were inoculated with sporangial suspension of P.viticola ([…]) onto their lower leaf surface and placed in 100% relative humidity for 20 hr. The plants were then placed in a growth cabinets 20° C. for 10 days. Disease development was assessed according to the abaxial leaf surfaces area covered with fungal sporulation.

Experiment [3] relates to Pseudoperonospora cubensis. In words: Downy mildew in melon (Table 7). Particulars: 500 ppm, 7 days after inoculation.
Procedure: Cucumber plants (cv,Dlila) and melon plants (cv.Ein Dor) were raised from seeds in 0.2 liter pots in the greenhouse. At 3 weeks after sowing when had 3 true leaves they were inoculated with sporangial suspension (1000 sporangia/ml) of P.cubensis (resistant to metalaxyl) and placed in 100% relative humidity in the dark for 20 hr. They were then place in a 20° C. growth cabinet for 7 days and assessed for disease development. Percentage leaf area covered with disease symptoms was evaluated and control efficacy was calculated relative to control inoculated plants.
Experiment [4] relates to Phytophthora infestans. In kind it is in vivo. Particulars: potato, 2000 ppm.

Like-named read-outs stand apart in the source and are kept apart here.

With `CCCCC(C)OC(=O)CC(C)NC(=O)c1ccc(C)cc1` (stereo not drawn) [compound 46, D,L N-4-methylbezoyl-3-aminobutyric acid 1-methylpentyl ester], in experiment [1], the “Control efficacy (%) 7d” value was determined as 69%.

Regarding `CCCCCC(C)OC(=O)CC(C)NC(=O)c1ccc(C)cc1` (stereo not drawn) [compound 43, D,L N-4-methylbenzoyl-3-aminobutyric acid 1-methylhexyl ester], the “Control efficacy (%) 7d” value in experiment [1] is given as 75%.

As for `CCCCC(C)OC(=O)CC(C)NC(=O)c1ccc(Cl)cc1` (stereo not drawn) [compound 18, D,L N-4-cholrobenzoyl-3-aminobutyric acid 1-methylpentyl ester], the “Control efficacy % 10d” value in experiment [2] amounted to 91%. Also, the “Control efficacy % 7 days” value in experiment [3] is 87%.

With `CC(CC(=O)OCCCc1ccccc1)NS(=O)(=O)c1ccccc1` (stereo not drawn) [compound 51, D,L N-benzensulphonyl-3-aminobutyric acid 3-phenylpropyl ester], the “Control efficacy % 10d” value in experiment [2] amounted to 97%. Moreover, in experiment [3], the “Control efficacy % 7 days” value amounted to 87%.

Take `CCCCCCCOC(=O)CC(C)NC(=O)c1cccc(C)c1` (stereo not drawn) [compound 22, D,L N-3-methylbezoyl-3-aminobutyric acid heptyl ester]: the “Control efficacy % 7 days” value in experiment [3] stood at 83%.

For the compound `CCCC(C)COC(=O)CC(C)NC(=O)c1c(Cl)cccc1Cl` (stereo not drawn) [compound 25, D,L N-2,6-dichlorobenzoyl-3-aminobutyric acid 2-methylpentyl ester], the “Control efficacy % 10d” value in experiment [2] is 100%. Also, the “Control efficacy % 7 days” value in experiment [3] came to 80%.

With `CCCCCCCOC(=O)CC(C)NC(=O)c1ccc(OC)cc1` (stereo not drawn) [compound 12, D,L N-4-methoxybenzoyl-3-aminobutyric acid heptyl ester], the “Control efficacy % 7 days” value in experiment [3] came out at 100%. The “Control efficacy (%) 7d” value in experiment [1] was 85%.

As to `CCCC(C)OC(=O)CC(C)NS(=O)(=O)c1ccccc1` (stereo not drawn) [Example 9, N-benzenesulfonyl-3-aminobutyric acid 1-methyl-1-butyl ester], the Control Efficacy % is 99% in experiment [4] (3 days after inoculation), 97% in experiment [4] (4 days after inoculation), 82% in experiment [4] (6 days after inoculation) and 62% in experiment [4] (8 days after inoculation).

`CC(CC(=O)OCCC(Cl)(Cl)Cl)NS(=O)(=O)c1ccccc1` (stereo not drawn) [compound 19, D,L N-benzenesulfonyl-3-aminobutyric acid 2-(trichloromethyl)ethyl ester]: the “Control efficacy % 10d” value in experiment [2] is on record as 94%. The “Control efficacy % 7 days” value in experiment [3] is 83%.

`CCCCCCCOC(=O)CC(C)NS(=O)(=O)c1ccc(C)cc1` (stereo not drawn) [compound 34, D,L N-4-methylbenzenesulfonyl-3-aminobutyric acid heptyl ester]: the “Control efficacy % 7 days” value in experiment [3] came to 70%.

Take `Cc1ccc(C(=O)NC(C)CC(=O)OCCCc2ccccc2)cc1` (stereo not drawn) [compound 26, D,L N-4-methylbenzoyl-3-aminobutyric acid 3-phenylpropyl ester]: the “Control efficacy % 10d” value in experiment [2] came out at 99%.

On to `CC(CC(=O)Oc1cc(Cl)cc(Cl)c1)NS(=O)(=O)c1ccccc1` (stereo not drawn) [compound 53, D,L N-benzensulfonyl-3-aminobutyric acid 3,5-dichlorophenyl ester], for which the “Control efficacy (%) 7d” value in experiment [1] stood at 100%.

On to `CCCOC(=O)CC(C)NS(=O)(=O)c1ccccc1` (stereo not drawn) [compound 41, D,L N— benzenesulfonyl-3-aminobutyric acid propyl ester], for which, in experiment [1], the “Control efficacy (%) 7d” value stood at 77%.

Turning to `CCCCC(C)OC(=O)CC(C)NS(=O)(=O)c1ccc(Cl)cc1` (stereo not drawn) [compound 50, D,L N-4-chlorobenzensulfonyl-3-aminobutyric acid 1-methylpentyl ester], the “Control efficacy (%) 7d” value in experiment [1] amounted to 92%.

As for `CCCCCCCOC(=O)CC(C)NC(=O)c1c(F)cccc1F` (stereo not drawn) [compound 14, D,L N-2,6-difluorobenzoyl-3-aminobutyric acid heptyl ester], the “Control efficacy % 10d” value in experiment [2] was 100%.

With `CCC(C)OC(=O)CC(C)NS(=O)(=O)c1ccccc1` (stereo not drawn) [Example 8, N-benzenesulfonyl-3-aminobutyric acid-sec butyl ester], the Control Efficacy % was determined as 100% in experiment [4] (3 days after inoculation), 92% in experiment [4] (4 days after inoculation), 87% in experiment [4] (6 days after inoculation) and 50% in experiment [4] (8 days after inoculation).

As for “N-β-methylbenzoyl-1-aminobutyric acid-1-methyl-1-pentyl ester [Example 10]”, the Control Efficacy % in experiment [4] (3 days after inoculation) is listed as 100%; in experiment [4] (4 days after inoculation) it was 100%; in experiment [4] (6 days after inoculation) it was 97%; in experiment [4] (8 days after inoculation), 87%.

As to `CCCCCCCOC(=O)CC(C)NC(=O)c1cc(C)cc(C)c1` (stereo not drawn) [compound 13, D,L N-3,5-dimethylbezoyl-3-aminobutyric acid heptyl ester], in experiment [1], the “Control efficacy (%) 7d” value is 72%.

In the case of `CCCCC(C)OC(=O)CC(C)NS(=O)(=O)c1ccc(C)cc1` (stereo not drawn) [compound 16, D,L N-4-methylbenzenesulfonyl-3-aminobutyric acid i-methylpentyl ester], the “Control efficacy % 10d” value in experiment [2] is given as 100%. The “Control efficacy (%) 7d” value in experiment [1] is listed as 83%.

Take `CC(CC(=O)OCCCc1ccccc1)NS(=O)(=O)c1ccccc1` (stereo not drawn) [compound 17, D,L N-benzenesulfonyl-3-aminobutyric acid 3-phenylpropyl ester]: the “Control efficacy % 10d” value in experiment [2] is 97%. Also, the “Control efficacy % 7 days” value in experiment [3] was 87%.

On to `CNc1ccccc1C(=O)NC(C)CC(=O)OC` (stereo not drawn) [compound 47, D,L N-2-methylaminobenzoyl-3-aminobutyric acid methyl ester.], for which the “Control efficacy (%) 7d” value in experiment [1] was 81%.

Consider `CCCCCCCCCC(C)OC(=O)CC(C)NC(=O)c1ccc(C)cc1` (stereo not drawn) [compound 44, D,L N-4-methylbenzoyl-3-aminobutyric acid 1-methyldecanyl ester], for which the “Control efficacy (%) 7d” value in experiment [1] stood at 74%.

For the compound `COc1ccc(C(=O)NC(C)CC(=O)OCCCl)cc1` (stereo not drawn) [compound 28, D,L N-4-methoxybenzoyl-3-aminobutyric acid 2-chloroethyl ester], the “Control efficacy % 10d” value in experiment [2] is reported as 91%.

Turning to `CC(CC(=O)OCCCl)NC(=O)c1ccccc1` (racemic) [Example 11, DL-N-benzoyl-3-aminobutyric acid 2-chloroethyl ester], the Control Efficacy % was determined as 95% in experiment [4] (3 days after inoculation), 92% in experiment [4] (4 days after inoculation), 82% in experiment [4] (6 days after inoculation) and 70% in experiment [4] (8 days after inoculation).

For the compound `CCCCCCCOC(=O)CC(C)NC(=O)c1ccc(C)c(C)c1` (stereo not drawn) [compound 45, D,L N-3,4-dimethylbezoyl-3-aminobutyric acid heptyl ester], the “Control efficacy (%) 7d” value in experiment [1] is on record as 71%.

On to `CCC(C)OC(=O)CC(C)NS(=O)(=O)c1ccc(C)cc1` (stereo not drawn) [compound 20, D,L N-4-methylbenzenesulfonyl-3-aminobutyric 1-methylpropyll ester], for which, in experiment [2], the “Control efficacy % 10d” value was determined as 100%.

Consider `CCCCCCCOC(=O)CC(C)NC(=O)c1ccc(Cl)cc1` (stereo not drawn) [compound 30, D,L N-4-cholrobenzoyl-3-aminobutyric acid heptyl ester], for which the “Control efficacy % 10d” value in experiment [2] is given as 91%.

As for `CCCCCCCOC(=O)CC(C)NC(=O)c1ccccc1C` (stereo not drawn) [compound 32, D,L N-2-methylbezoyl-3-aminobutyric acid heptyl ester], the “Control efficacy % 7 days” value in experiment [3] amounted to 77%. Also, in experiment [1], the “Control efficacy (%) 7d” value came to 83%.

Take `C=CCOC(=O)CC(C)NC(=O)c1ccccc1` (stereo not drawn) [compound 42, N-benzoyl-3-aminobutyric acid-2 propenyl ester]: the “Control efficacy (%) 7d” value in experiment [1] was 77%.

`CCCCCCCCOC(=O)CC(C)NC(=O)c1ccc(C)c(C)c1` (stereo not drawn) [compound 54, D,L N-3,4-dimethylbenzoyl-3-aminobutyric acid octyl ester]: in experiment [1], the “Control efficacy (%) 7d” value stood at 69%.

For `CC(CC(=O)OCCC(Cl)(Cl)Cl)NC(=O)c1ccccc1` (stereo not drawn) [compound 29, D,L N-benzoyl-3-aminobutyric acid 2-(trichloromethyl)ethyl ester], in experiment [2], the “Control efficacy % 10d” value was 91%. The “Control efficacy % 7 days” value in experiment [3] came out at 70%.

For the compound `COCC(C)OC(=O)CC(C)NS(=O)(=O)c1ccccc1` (stereo not drawn) [compound 31, D,L N-benzenesulfonyl-3-aminobutyric acid 1-methyl-2-methoxyethyl ester], the “Control efficacy % 10d” value in experiment [2] turned out to be 82%.

As for `CCCCCCCOC(=O)CC(C)NC(=O)c1c(Cl)cccc1Cl` (stereo not drawn) [compound 24, D,L N-2,6-dichlorobenzoyl-3-aminobutyric acid heptyl ester], the “Control efficacy % 10d” value in experiment [2] amounted to 100%.

For `CCCCCCCCOC(=O)CC(C)NS(=O)(=O)c1ccccc1` (racemic) [Example 7, DL-N-benzenesulfonyl-3-aminobutyric acid n-octyl ester], the Control Efficacy % was found to be 100% in experiment [4] (3 days after inoculation), 100% in experiment [4] (4 days after inoculation), 82% in experiment [4] (6 days after inoculation) and 77% in experiment [4] (8 days after inoculation).

As to `CCCCC(C)OC(=O)CC(C)NC(=O)c1cc(C)cc(C)c1` (stereo not drawn) [compound 23, D,L N-3,5-dimethylbezoyl-3-aminobutyric acid 1-methylpentyl ester], in experiment [2], the “Control efficacy % 10d” value turned out to be 100%. Further, in experiment [3], the “Control efficacy % 7 days” value is recorded as 73%.

In the case of `Cc1cc(C)cc(C(=O)NC(C)CC(=O)OCCCl)c1` (stereo not drawn) [compound 27, D,L N-3,5-dimethylbezoyl-3-aminobutyric acid 2-chloroethyl ester], the “Control efficacy % 10d” value in experiment [2] is recorded as 97%. The “Control efficacy % 7 days” value in experiment [3] is given as 73%.

In the case of `Cc1ccc(S(=O)(=O)NC(C)CC(=O)OCCBr)cc1` (stereo not drawn) [compound 33, D,L N-4-methylbenzenesulfonyl-3-aminobutyric acid 2-bromoethyl ester], the “Control efficacy % 7 days” value in experiment [3] is given as 75%.

Values taken from patent publication US6348614B1 (priority 1996, dated 2002).
